Results on 3 compounds are retold here after article PMC9213526, “Glycoside hydrolase from the GH76 family indicates that marine Salegentibacter sp. Hel_I_6 consumes alpha-mannan from fungi” (The ISME Journal, 2022).

In assay [1] the target is T1, ShGH76 (Salegentibacter sp. Hel_I_6, UniProt A0ACD6BAU6, D116N/D117N, form not given).
T1 construct: gene GH76A; synthetic gene in pET28a(+) (NheI/XhoI), N-terminal 6xHis tag, E. coli BL21(DE3); modelled residues Asp54-Glu391
Kind of assay: X-ray crystallography of the complex, […] Å. Format: binding. The note with it: inactive double mutant ShGH76^Asn; co-crystallised at pH 4.6 with 140 mM calcium chloride; active site.

For assay [2], the target named is T2, ShGH76 (Salegentibacter sp. Hel_I_6, UniProt A0ACD6BAU6, D116A/D117A, form not given).
T2 construct: gene GH76A; synthetic gene in pET28a(+) (NheI/XhoI), N-terminal 6xHis tag, E. coli BL21(DE3); modelled residues Asp54-Glu391
Kind of assay: X-ray crystallography of the complex, […] Å. The format is binding. The note with it: inactive double mutant ShGH76^Ala; co-crystallised in 1.6 M tri-sodium citrate; active site.

Assay [3] has as its target T3, ShGH76 (Salegentibacter sp. Hel_I_6, UniProt A0ACD6BAU6).
T3 construct: gene GH76A; synthetic gene in pET28a(+) (NheI/XhoI), N-terminal 6xHis tag, E. coli BL21(DE3); modelled residues Asp54-Glu391
Kind of assay: HPAEC-PAD product analysis. The format is biochemical.

In the case of `OC[C@H]1O[C@H](OC[C@H]2O[C@H](OC[C@H]3OC(O)[C@@H](O)[C@@H](O)[C@@H]3O)[C@@H](O)[C@@H](O)[C@@H]2O)[C@@H](O)[C@@H](O)[C@@H]1O` (stereo partly drawn) [Man3, α-1,6-mannotriose], the “X-ray crystallography of the complex, 1.47 Å” value in assay [1] is “crystal structures of ShGH76^WT (apo-form), ShGH76^Asn (with Man3) and ShGH76^Ala (with Man4)”.

As to `OC[C@H]1O[C@H](OC[C@H]2O[C@H](OC[C@H]3O[C@H](OC[C@H]4OC(O)[C@@H](O)[C@@H](O)[C@@H]4O)[C@@H](O)[C@@H](O)[C@@H]3O)[C@@H](O)[C@@H](O)[C@@H]2O)[C@@H](O)[C@@H](O)[C@@H]1O` (stereo partly drawn) [Man4, α-1,6-mannotetrose], in assay [2], the “X-ray crystallography of the complex, 1.90 Å” value was “crystal structures of ShGH76^WT (apo-form), ShGH76^Asn (with Man3) and ShGH76^Ala (with Man4)”.

As to `OC[C@H]1O[C@H](OC[C@H]2O[C@H](OC[C@H]3O[C@H](OC[C@H]4O[C@H](OC[C@H]5O[C@H](OC[C@H]6O[C@H](OC[C@H]7OC(O)[C@@H](O)[C@@H](O)[C@@H]7O)[C@@H](O)[C@@H](O)[C@@H]6O)[C@@H](O)[C@@H](O)[C@@H]5O)[C@@H](O)[C@@H](O)[C@@H]4O)[C@@H](O)[C@@H](O)[C@@H]3O)[C@@H](O)[C@@H](O)[C@@H]2O)[C@@H](O)[C@@H](O)[C@@H]1O` (stereo partly drawn) [Man7, mannoheptose], the HPAEC-PAD product analysis result in assay [3] is “As is exemplarily shown for Man7 (Fig. 5D), ShGH76^WT hydrolyzed α-1,6-mannooligosaccharides almost completely”.
